Measurements taken from patent US20240293563A1, “GLP-1 RECEPTOR LIGAND MOIETY CONJUGATED OLIGONUCLEOTIDES AND USES THEREOF” (priority 2017, published 2024).
k = constrained ethyl (cEt); d = 2'-deoxy (DNA)

Columns and labels:
MALAT1 [1] = experiment: MALAT1 expression in pancreas by in situ hybridization (RNAscope); assay type: in vivo, mouse; conditions: 2 μmol/kg; subcutaneous or intravenous (ISIS 556089 subcutaneous only); 72 hrs after last dose
Excerpt: Female C57BL/6Crl mice were assigned to five treatment groups. […] All animals were sacrificed approximately 72 hrs after last dose, and pancreas harvested for ex vivo analysis of uptake of antisense oligonucleotides by immunohistochemistry.
Female C57BL/6Crl mice were assigned to five treatment groups as described herein (Example 11) All animals were sacrificed approximately 72 hrs after last dose, and pancreas harvested for ex vivo analysis of MALAT1 expression by in situ hybridization.
The in situ mRNA amplification and labelling process was performed on the Ventana Discovery ULTRA, an Automated ISH platform(Ventana Medical System, Inc) using the RNAscope® VS Assay based on Advanced Cell Diagnostics (ACD). Customized probes were obtained from ACD for the detection of MALAT1 mRNA, and various parameters were tested to optimize the novel RNAscope method for ISH. The signal was amplified using multiple steps, followed by labeled probes and detected using the RNAscope® 2.5 VS Reagent Kit-RED. Stained slides were analyzed under a standard bright-field microscope.

MALAT1 [2] = experiment: In situ hybridization of MALAT1 (QuantiGene ViewRNA) in mouse tissues after intravenous ASO; assay type: in vivo
Excerpt: NO: 63) or a GLP-1 conjugated MALAT1 ASO (ISIS 816385) described in Example 1 at concentrations of 1.8. 0.6, or 0.2 μmol/kg. […] MALAT1 expression was detected using the QuantiGene ViewRNA tissue assay (Affymetrix, cat. No. QVT0011). Species-specific MALAT1 probes were purchased from Affymetrix (cat. No. VB-11110-01/mouse; VF1-13963/monkey). In brief, mouse tissues were fixed in 10% neutral-buffered formalin and embedded into paraffin and sectioned into […]. After deparaffinization, the tissue slides were boiled in Affymetrix pretreatment solution for 10-30 minutes followed by treatment with protease at 40° C. for 10 to 40 minutes depending on tissue. The MALAT1 RNA probe was used at a 1:40 dilution and was incubated with sample at 40° C. for 120 minutes. After washing, the MALAT1 RNA/probe complex was hybridized with preamplifier, amplifier, and AP-oligonucleotides at 40° C. for 25, 15, and 15 minutes, respectively. After removal of free AP oligonucleotide by washing in PBS, the slide was incubated with Fast Red substrate at room temperature for 30 minutes. The tissue images were acquired using an Aperio scanner. Hung et al., 2013 Nuc Acid Ther. 369-78. To determine a dose response of a GLP-1 conjugated MALAT1 ASO (ISIS 816385) described in Example 1 on pancreatic MALAT1 expression, male C57BL/6 mice fed a chow diet received a single intravenous injection of ISIS 816385 or an unconjugated MALAT1 ASO (ISIS 556089) described above at concentrations of 0.2, 0.06, and 0.02 μmol/kg. MALAT1 expression was detected using the QuantiGene ViewRNA tissue assay described above.

MALAT1 mRNA [3] = experiment: Dose dependent antisense inhibition of MALAT1 in hGLP1R-HEK cells; assay type: cell-based, human; conditions: approximately 24 hrs, qRT-PCR normalized to RPLP0
Method: The hGLP1R-HEK cell line was generated by expressing hGLP1R in Flp-IN™ 293 cells. Cultured hGLP1R-HEK cells were seeded at a density 30,000 cells per well in 96 well plates and saline, 100 nM or 10 μM of unconjugated parent antisense oligonucleotide ISIS 556089 targeted to MALAT1 described above or ISIS 776102 (nucleobase sequence: […]) (SEQ ID NO: 64) targeted to FOXO1, or corresponding GLP-1 peptide conjugated antisense oligonucleotides (ISIS 816385 targeted to MALAT1 described above or ION 913193 targeted to FOXO1 described above) for approximately 24 hrs. After the treatment period, cells were harvested, the mRNA isolated and adjusted to total RNA content as measured by nanadrop UV-Vis spectrophotometer. MALAT1 or FOXO1 mRNA levels were measured by quantitative real-time PCR and normalized to the mRNA levels of the house keeping gene (RPLP0) in the same samples. Human MALAT1 mRNA levels were measured using gene expression assays HS00273907 and FOXO1 mRNA levels were measured using assay Hs01054576 (Applied Biosystems). The mRNA level of the house keeping gene RPLP0 was measured using a primer probe set with forward sequence […] CAT […] (SEQ ID NO: 66), reverse sequence […] (SEQ ID NO: 67). […]
After the treatment period cells were harvested, mRNA isolated and MALAT1 mRNA levels measured by quantitative real-time PCR using the primer probe set as described herein (Example 7). […]

MALAT1 [4] = experiment: MALAT1 in situ hybridization in beta islet cells after i.v. GLP-1 ASO conjugates with various linkers; assay type: in vivo, mouse; conditions: male C57BL/6 mice; intravenous 0.6 μmol/kg/week once a week for three weeks; 72 hours after final injection
MALAT-1 = experiment: Dose-dependent reduction of MALAT-1 expression in LVX-GLP1R cells; assay type: cell-based, human; conditions: approximately 24 hours; read-out: IC50 (MALAT-1 expression in GLP1R HEK cells)
Method: HEK cells stably expressing FLAG-tagged GLP1R were generated by infecting HEK 293 cells with FLAG-tagged GLP1R containing lentivirus produced by transfection of 293T cells with pLVX-IRES-Puro (Clontech Laboratories Inc., Mountainview, CA) harboring the FLAG-GLP1R insert. Infected cells were selected with puromycin (2 μg/ml) and then analyzed for receptor expression by western blot and immunofluorescence. Cultured GLP1R cells were plated at a density of 10,000 cells per well and treated with 0.3, 1, 3, 9, 27, 82, 247, 741, 2,222, 6,667, and 20,000 nM modified oligonucleotide for approximately 24 hours. After the treatment period, total RNA was prepared using an RNeasy mini kit (Qiagen, Valencia, CA, USA) and qRT-PCR was performed using the primer probe set RTS2739 (forward sequence: […] (SEQ ID NO: 74), reverse sequence: […] (SEQ ID NO: 75), probe sequence: […] (SEQ ID NO: 76). Briefly, ˜50 ng total RNA in 5 d water was mixed with 0.3 d primer probe sets containing forward and reverse primers (10 μM of each) and fluorescently labeled probe (3 μM), 0.3 W RT enzyme mix (Qiagen), 4.4 d RNase-free water, and 10 d of 2×PCR reaction buffer in a 20 d reaction. Reverse transcription was performed at 48° C. for 10 min, 40 cycles of PCR were conducted at 94° C. for 20 s, and 60° C. for 20 s within each cycle, using StepOne Plus RT-PCR system (Applied Biosystems, Phoenix, AZ, USA). The mRNA levels were normalized to the amount of total RNA present in each reaction as determined by Ribogreen assay (Life Technologies) and normalized to the saline control (100% expression).

MALAT1 [5] = experiment: Effect of peptide composition and attachment point on peptide-conjugated ASO activity in LVX-GLP1R cells; assay type: cell-based, human; conditions: 7 doses in a 4-fold dilution series, MALAT1 RNA
MALAT1 mRNA [6] = experiment: Dose dependent antisense inhibition of MALAT1 in WT HEK293 cells; assay type: cell-based, human; conditions: approximately 24 hrs, qRT-PCR normalized to RPLP0
MALAT1 mRNA [7] = experiment: MALAT1 mRNA in isolated islets and liver 72 hrs after single subcutaneous dose; assay type: in vivo, mouse; conditions: single subcutaneous injection 0.01, 0.1 or 1 μmol/kg
Method: (§1) Pancreatic islets were isolated by collagenase digestion from pancreas collected from exsanguinated 12 to 15 weeks old female C57BL/6Crl mice. Islets were maintained in tissue culture until use. Islet were dissociated into single cells by shaking in media containing a low extracellular calcium concentration. 10 to 20 intact or dissociated islets were plated on plastic Petri Dishes and treated with 10 μM of antisense oligonucleotides for approximately 24 hrs. After the treatment period cells were harvested, RNA isolated, adjusted to total RNA content, as measured by RIBOGREEN®. MALAT1 or FOXO1 mRNA levels measured by quantitative real-time PCR. Mouse Malat1 mRNA levels was measured using gene expression assay Mm01227912_s1 from Applied Biosystems, whereas mouse FOXO1 mRNA levels was measured using a primer probe set with forward sequence […] All data was normalized to the mRNA level of the house keeping gene (RPLP0) in the same sample, measured using a primer probe set with forward sequence […]
(§2) All animals were sacrificed 72 hrs after last dose.

FOXO1 mRNA [8] = experiment: FOXO1 mRNA in isolated islets and liver after 6 weeks repeated administration to ob/ob mice; assay type: in vivo, mouse; conditions: male ob/ob mice; 0.1 μmol/kg once weekly for 6 weeks; 120 hrs after last dose
Method: Pancreatic islets were isolated by collagenase digestion from pancreas collected from exsanguinated 12 to 15 weeks old female C57BL/6Crl mice. Islets were maintained in tissue culture until use. Islet were dissociated into single cells by shaking in media containing a low extracellular calcium concentration. 10 to 20 intact or dissociated islets were plated on plastic Petri Dishes and treated with 10 μM of antisense oligonucleotides for approximately 24 hrs. After the treatment period cells were harvested, RNA isolated, adjusted to total RNA content, as measured by RIBOGREEN®. MALAT1 or FOXO1 mRNA levels measured by quantitative real-time PCR. […] All data was normalized to the mRNA level of the house keeping gene (RPLP0) in the same sample, measured using a primer probe set with forward sequence […] NO: 71), reverse sequence […] NO: 72) and probe sequence […] NO: 73). Male ob/ob mice (B6.V-Lepob/OlaHsd, Harlan) were assigned to five treatment groups receiving either vehicle, 0.1 μmol/kg ISIS 776102, 0.1 μmol/kg ION 913195, 0.03 ION 913193 or 1 μmol/kg ION 913193. All animals were treated once weekly for 6 weeks. Approximately 120 hrs after last dose all animals were sacrificed, liver samples collected and pancreatic islets isolated, as described herein (Example 9), for mRNA analysis. FOXO1 mRNA levels were quantified as described herein (Example 9) and mRNA levels expressed relative to housekeeping gene in each sample (RPLP0).

FOXO1 mRNA [9] = experiment: FOXO1 mRNA in isolated islets and liver 72 hrs after single subcutaneous dose; assay type: in vivo, mouse; conditions: single subcutaneous injection 0.01 or 1 μmol/kg
Method: as §1, §2

FOXO1 mRNA [10] = experiment: FOXO1 mRNA in cultured mouse primary islets of Langerhans treated with ASO; assay type: cell-based; conditions: for Islet FOXO1 mRNA levels relative to control (RPLP0): percent of untreated cells, 1 μM ASO 3 hrs every 24 hrs
Method: Pancreatic islets were isolated by collagenase digestion from pancreas collected from exsanguinated 12 to 15 weeks old female C57BL/6Crl mice. Islets were maintained in tissue culture until use. Islet were dissociated into single cells by shaking in media containing a low extracellular calcium concentration. 10 to 20 intact or dissociated islets were plated on plastic Petri Dishes and treated with 10 μM of antisense oligonucleotides for approximately 24 hrs. After the treatment period cells were harvested, RNA isolated, adjusted to total RNA content, as measured by RIBOGREEN®. MALAT1 or FOXO1 mRNA levels measured by quantitative real-time PCR. […] All data was normalized to the mRNA level of the house keeping gene (RPLP0) in the same sample, measured using a primer probe set with forward sequence […] NO: 71), reverse sequence […] NO: 72) and probe sequence […] NO: 73). Pancreatic islets were isolated by collagenase digestion from pancreas collected from euthanized 12 to 15 weeks old female B6.Cg-Lepob/J mice and maintained in tissue culture until use. 150 intact islets were placed in plastic Petri Dishes and treated with 1 μM of antisense oligonucleotides for 3 hrs every 24 hrs and harvested after approximately 24 hrs, 48 hrs or 96 hrs total treatment time respectively. After the treatment period, islets were harvested, and half of the islets were used to measure FOXO1 mRNA levels as described herein (Example 9). Half of the islets were homogenized in M-PER protein extraction reagent (Thermo Scientific) containing a protease inhibitor cocktail (Complete Mini and phosphoSTOP, Roche Diagnostics). The protein content of lysates were quantitated using BCA Assay Reagent (Pierce). […] For the anti-FoxO1 antibody, the secondary antibody was HRP-conjugated polyclonal goat anti-Rabbit P0448 (DAKO) and for the anti-α-tubulin antibody, the secondary antibody was HRP-conjugated polyclonal goat anti-mouse P0447 (DAKO). Enhanced chemiluminescence reagents (Pierce) were used for detection.

| Substance | MALAT1 expression in the pancreatic islet of Langerhans (MALAT1 [1]) | effect in liver (MALAT1 in situ hybridization) (MALAT1 [2]; Study 2, single intravenous injection, any of the doses 0.2, 0.06, 0.02 μmol/kg) | MALAT1 expression in pancreatic beta islet cells (in situ hybridization) (MALAT1 [2]; male C57BL/6 mice, 2 intravenous injections of 1.8, 0.6 or 0.2 μmol/kg, 72 hours after final injection) | IC50 (MALAT1 mRNA [3]) | MALAT1 expression in beta islet cells compared to saline control (in situ hybridization) (MALAT1 [4]) | IC50 (MALAT-1) | IC50 (MALAT1 [5]) | IC50 (MALAT1 mRNA [6]) | antisense inhibition of MALAT1 in islet of Langerhans (MALAT1 mRNA [7]) | antisense inhibition of FOXO1 in islet of Langerhans (FOXO1 mRNA [8]) | antisense inhibition of FOXO1 in islet of Langerhans (FOXO1 mRNA [9]) | reduction in FOXO1 mRNA (FOXO1 mRNA [10]; mouse islets, 1 μM ASO, summary of Table 2) | Islet FOXO1 mRNA levels relative to control (RPLP0) (FOXO1 mRNA [10]; 24 hours) | Islet FOXO1 mRNA levels relative to control (RPLP0) (FOXO1 mRNA [10]; 48 hours) | Islet FOXO1 mRNA levels relative to control (RPLP0) (FOXO1 mRNA [10]; 96 hours) |
| --- | --- | --- | --- | --- | --- | --- | --- | --- | --- | --- | --- | --- | --- | --- | --- |
| ISIS 556089: unconjugated parent 3-10-3 cEt ASO targeting murine MALAT1, nucleobase sequence GCATTCTAATAGCAGC (SEQ ID NO: 63) (sugars from the 5' end k3 d10 k3, backbone and methylation of C not given here) [reference compound] | not reduced | No observable effect | not | 0.87 µM | not | 3.97 µM | 3.82 µM | 0.74 µM | No significant antisense inhibition | – | – | – | – | – | – |
| ISIS 776102: unconjugated parent antisense oligonucleotide targeted to FOXO1, nucleobase sequence TCTTCTTAAAATACCC (SEQ ID NO: 64) (listed as DNA, further chemistry not given here) [reference compound] | – | – | – | – | – | – | – | – | – | No significant antisense inhibition | No significant antisense inhibition | marginal reduction | 82% | 86% | 92% |
